Key:
Format in all cases: functional
[1] = test system: B16; experiment: Antitumor activity against mouse B16 cells allografted in BDF mouse assessed as increase in life span at 8 mg/kg, ip administered for 9 days relative to untreated control; details: route intraperitoneal
[2] = test system: B16; experiment: Antitumor activity against mouse B16 cells allografted in ip dosed BDF mouse assessed as 25% increase in life span administered for 9 days
[3] = test system: B16; experiment: Antitumor activity against mouse B16 cells allografted in BDF mouse assessed as increase in life span at 100 mg/kg, ip administered for 9 days relative to untreated control; details: route intraperitoneal
[4] = test system: B16; experiment: Antitumor activity against mouse B16 cells allografted in BDF mouse assessed as increase in life span at 4 mg/kg, ip administered for 9 days relative to untreated control; details: route intraperitoneal
[5] = test system: B16; experiment: Antitumor activity against mouse B16 cells allografted in BDF mouse assessed as increase in life span at 25 mg/kg, ip administered for 9 days relative to untreated control; details: route intraperitoneal

How did the T/C [1] turn out when O=C(O)CCCc1ccc(N(CCCl)CCCl)cc1 [CHLORAMBUCIL] was run?
The T/C was 133%.

And the “log(1/C)” value [2]?
The value was 4.7.

What does the source list for ClCCN(CCCl)c1ccc(/C=C/c2ccccc2)cc1?
log(1/C) [2]: 2.86; T/C [3]: 101%

Which results are given for NC(Cc1ccc(N(CCCl)CCCl)cc1)C(=O)O (stereo not drawn) [SARCOLYSIN]?
T/C [4]: 236%; log(1/C) [2]: 6.18

How did the “log(1/C)” value [2] turn out when NC(=O)Nc1cc(NC(N)=O)cc(N(CCCl)CCCl)c1 was run?
The value was 3.69.

And the T/C [5]?
Its T/C is 108%.
